Test results published in the supplement of paper PMC10307832.

Key:
Assay in all cases: relative viability (nuclei count vs DMSO), 5 days (fraction); higher = more cells survive
Bleomycin + Palbociclib = compound: CC1=C(N=C(N=C1N)[C@H](CC(=O)N)NC[C@@H](C(=O)N)N)C(=O)N[C@@H]([C@H](C2=CN=CN2)OC3C(C(C(C(O3)CO)O)O)OC4C(C(C(C(O4)CO)O)OC(=O)N)O)C(=O)N[C@H](C)[C@H]([C@H](C)C(=O)N[C@@H]([C@@H](C)O)C(=O)NCCC5=NC(=CS5)C6=NC(=CS6)C(=O)NCCC[S+](C)C)O [Bleomycin] + CC(=O)c1c(C)c2cnc(Nc3ccc(N4CCNCC4)cn3)nc2n(C2CCCC2)c1=O [Palbociclib] (partner 0.5 µM); conditions: main component drawn
Procedure, shortened: (§1)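 Relative viability divides the nuclei count in treated wells by that in vehicle wells. Lung cancer cell lines were seeded in 1536-well plates, dosed by pin tool the next day, and fixed and stained after 5 days in one step with final 0.05% Triton X-100, 1% formaldehyde and 1 ug/ml Hoechst. Dosing was a single drug or a fixed anchor-drug dose plus five library-drug doses (not always all listed) in √10 steps, and values are medians of duplicate plates imaged at 4×.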

Bleomycin + Olaparib = compound: CC1=C(N=C(N=C1N)[C@H](CC(=O)N)NC[C@@H](C(=O)N)N)C(=O)N[C@@H]([C@H](C2=CN=CN2)OC3C(C(C(C(O3)CO)O)O)OC4C(C(C(C(O4)CO)O)OC(=O)N)O)C(=O)N[C@H](C)[C@H]([C@H](C)C(=O)N[C@@H]([C@@H](C)O)C(=O)NCCC5=NC(=CS5)C6=NC(=CS6)C(=O)NCCC[S+](C)C)O [Bleomycin] + O=C(c1cc(Cc2n[nH]c(=O)c3ccccc23)ccc1F)N1CCN(C(=O)C2CC2)CC1 [Olaparib] (partner 8 µM); conditions: main component drawn
Procedure, shortened: as §1

Bleomycin + Linsitinib = compound: CC1=C(N=C(N=C1N)[C@H](CC(=O)N)NC[C@@H](C(=O)N)N)C(=O)N[C@@H]([C@H](C2=CN=CN2)OC3C(C(C(C(O3)CO)O)O)OC4C(C(C(C(O4)CO)O)OC(=O)N)O)C(=O)N[C@H](C)[C@H]([C@H](C)C(=O)N[C@@H]([C@@H](C)O)C(=O)NCCC5=NC(=CS5)C6=NC(=CS6)C(=O)NCCC[S+](C)C)O [Bleomycin] + C[C@]1(O)C[C@@H](c2nc(-c3ccc4ccc(-c5ccccc5)nc4c3)c3c(N)nccn32)C1 [Linsitinib] (partner 1 µM); conditions: main component drawn
Procedure, shortened: as §1

Etoposide + Crizotinib = compound: COc1cc([C@@H]2c3cc4c(cc3[C@@H](O[C@@H]3O[C@@H]5CO[C@@H](C)O[C@H]5[C@H](O)[C@H]3O)[C@H]3COC(=O)[C@H]23)OCO4)cc(OC)c1O [Etoposide] + C[C@@H](Oc1cc(-c2cnn(C3CCNCC3)c2)cnc1N)c1c(Cl)ccc(F)c1Cl [Crizotinib] (partner 1 µM)
Procedure, shortened: as §1

Cell Line: UMC-11
- relative viability (Bleomycin + Palbociclib; first compound 0.01 µM): 0.311
- relative viability (Bleomycin + Palbociclib; first compound 0.03162 µM): 0.334
- relative viability (Bleomycin + Palbociclib; first compound 0.1 µM): 0.355
- relative viability (Bleomycin + Palbociclib; first compound 0.3162 µM): 0.313
- relative viability (Bleomycin + Palbociclib; first compound 1 µM): 0.263
- relative viability (Bleomycin + Olaparib; first compound 0.01 µM): 0.36
- relative viability (Bleomycin + Olaparib; first compound 0.03162 µM): 0.342
- relative viability (Bleomycin + Olaparib; first compound 0.1 µM): 0.371
- relative viability (Bleomycin + Olaparib; first compound 0.3162 µM): 0.393
- relative viability (Bleomycin + Olaparib; first compound 1 µM): 0.271
- relative viability (Bleomycin + Linsitinib; first compound 0.01 µM): 0.975
- relative viability (Bleomycin + Linsitinib; first compound 0.03162 µM): 0.91
- relative viability (Bleomycin + Linsitinib; first compound 0.1 µM): 0.863
- relative viability (Bleomycin + Linsitinib; first compound 0.3162 µM): 0.647
- relative viability (Bleomycin + Linsitinib; first compound 1 µM): 0.498
- relative viability (Etoposide + Crizotinib; first compound 0.01 µM): 0.703
- relative viability (Etoposide + Crizotinib; first compound 0.03162 µM): 0.573
- relative viability (Etoposide + Crizotinib; first compound 0.3162 µM): 0.241
- relative viability (Etoposide + Crizotinib; first compound 1 µM): 0.146
